The results in this text go back to PubChem BioAssay (NCI).

Holding throughout (experiment): NCI anticancer screen, dose series, 48 h
Experiment [1] deals with DLD-1 colon.
In experiment [2] the test system is DMS 273 small cell lung.
For experiment [3], the system named is HOP-18 NSCLC.
For experiment [4], the system named is KM20L2 colon.
Experiment [5] relates to LXFL 529 NSCLC.
The subject of experiment [6] is M19-MEL melanoma.
For experiment [7], the system named is MDA-N.
In experiment [8] the test system is RXF-631 renal.
For experiment [9], the system named is XF 498 CNS.

SMILES strings stand for the structures.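 The compound was tested at five concentrations on cells cultured in 96-well plates, with a 48-hour exposure period. Abbreviation: GI50, concentration required for 50% inhibition of growth. TGI denotes the concentration required for complete inhibition of growth.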

As to `CSc1cnc2ccccc2c1Sc1c[nH]c2ccccc2c1=O`, the TGI in experiment [1] is greater than 80.7 µM; in experiment [2], greater than 45.5 µM; in experiment [3] it was 67.8 µM; in experiment [4] it was 15.9 µM; in [5], 46.3 µM; in experiment [6], 34.6 µM.

Turning to `CCCCCC(O)C(O)CCC[C@H](O)[C@H]1CC[C@H]([C@H]2CC[C@H]([C@H](O)CCCCCCCCCCCCC3=C[C@H](C)OC3=O)O2)O1` (stereo partly drawn), in [7], the GI50 was 4.19 µM and the TGI stood at 23.5 µM.

With `CC1=C(C(=O)Nc2ccccc2)C(c2ccccc2Cl)C(C(=O)Nc2ccccc2)=C(C)N1`, the TGI is greater than 100 µM in experiment [1]; 41.9 µM in [2]; 56.5 µM in [3]; 38.9 µM in experiment [4]; 37.1 µM in experiment [5]; 36 µM in experiment [6]. The same molecule displayed a TGI in [8] greater than 100 µM.

With `O=C(O)CCNS(=O)(=O)c1ccc2ccccc2c1`, the TGI in experiment [1], in experiment [2], in experiment [3], in experiment [4], in experiment [5] and in experiment [6] was greater than 100 µM each time. The same molecule registered a TGI in experiment [9] greater than 100 µM.

Take `COC(=O)Nc1nc2ccccc2[nH]1`: in experiment [7], the TGI was 11.6 µM.

In the case of `CC1=C(SC#N)S(=O)(=O)N(c2ccccc2)C(C)=C1SC#N`, the TGI was greater than 100 µM in experiment [1]; greater than 100 µM in experiment [2]; greater than 100 µM in experiment [5]; greater than 100 µM in experiment [6]; 72.3 µM in [9].

Regarding `COc1ccc(C2=Nc3ccccc3SC(C)C2)cc1OC` (stereo not drawn), the TGI in experiment [2] was 34.8 µM; in [4], 33.6 µM; in experiment [5] it was 32 µM; in experiment [8], greater than 100 µM; in [9], 32.8 µM.

For `CCOC(=O)C1=C(O)c2ccc(C)cc2C(=O)C1=O`, the TGI is greater than 100 µM in experiment [1]; greater than 100 µM in [2]; greater than 100 µM in [3]; greater than 100 µM in [4]; 32.3 µM in experiment [6]; greater than 100 µM in experiment [9].

As for `O=C(C(=O)n1ncc(Cl)c(Cl)c1=O)n1ncc(Cl)c(Cl)c1=O`, the TGI is 32.4 µM in experiment [1]; 44.5 µM in experiment [2]; 67 µM in [3]; greater than 85.8 µM in experiment [4]; 41.8 µM in experiment [5]; 48.7 µM in experiment [6]. Further, the values for the TGI in experiment [8] and in experiment [9] were greater than 100 µM and greater than 93 µM, respectively.

`CCOC(=O)/C(=C/c1cccc(Cl)c1)N(CC)CC`: the TGI in experiment [1] was greater than 100 µM; in experiment [3], 84.6 µM; in [5], greater than 100 µM; in experiment [6] it was greater than 100 µM; in [9], greater than 100 µM.

As to `[N-]=[N+]=NCC(O)Cn1cnc2c(NC(=O)c3ccccc3)ncnc21` (stereo not drawn), the TGI in experiment [1], in experiment [2], in experiment [3], in experiment [4], in experiment [5] and in experiment [6] was greater than 100 µM each time. The molecule also yielded a TGI in experiment [9] greater than 100 µM.

`Cc1ccc(N=C[N-]c2ccc(C)cc2)cc1.Cc1ccc(N=C[N-]c2ccc(C)cc2)cc1.O=C([O-])C(F)(F)F.O=C([O-])C(F)(F)F.[OH3+].[OH3+].[Rh+2].[Rh+2]`: the GI50 in [1] is 56.7 µM; in [2] it was 80.2 µM; in experiment [3], 27.7 µM; in experiment [4], 39.9 µM; in experiment [5], 28.4 µM; in experiment [6] it was 33.3 µM. Also, the GI50 is greater than 100 µM in [8] and 22.5 µM in experiment [9]. Further, the TGI is greater than 100 µM in [1]; greater than 100 µM in experiment [2]; 71.4 µM in [3]; greater than 100 µM in experiment [4]; 74.2 µM in experiment [5]; 89.4 µM in [6]. Also, the results for the TGI in experiment [8] and in experiment [9] were greater than 100 µM and 59.4 µM, respectively.

Turning to `CCC(C)CC(C)CC(C)/C=C(\C)C1=C(C)CC(C)(O)O1` (stereo not drawn), the TGI in experiment [1], in [2], in [3], in experiment [5], in [6] and in [8] was greater than 100 µM each time.

For `C#CC1=CC(=O)C(OC)=CC1=O`, the TGI in experiment [7] is 37.6 µM.

As to `C1CCCCc2nc3c(nc2CCC1)c1nc2c(nc1c1nc4c(nc31)CCCCCCCC4)CCCCCCCC2`, the TGI in [1], in experiment [3], in experiment [4], in experiment [5] and in experiment [8] was greater than 100 µM each time.

Consider `COC1=CC(C2c3cc4c(cc3[C@@H](Nc3ccc(F)cc3)C3COC(=O)[C@H]23)OCO4)=CC(=O)C1=O` (stereo partly drawn), for which the TGI in experiment [1] was greater than 100 µM; in [2], 16.3 µM; in experiment [4] it was greater than 74.6 µM; in experiment [5] it was 16.3 µM; in experiment [6], 55.7 µM; in experiment [9], 27.9 µM.

Regarding `Cc1c(C(=O)O)n(C)c(=O)n(C)c1=O`, the TGI in experiment [1], in experiment [2], in [3], in experiment [4], in experiment [5] and in experiment [6] was greater than 100 µM throughout. This molecule also had a TGI in experiment [9] greater than 100 µM.

For the molecule `O=C(NC(=O)c1c(Cl)nc2sccn12)Nc1ccc(Cl)cc1`, the TGI in [1], in experiment [2], in [4], in [6], in [7] and in experiment [8] was greater than 100 µM in each case. The molecule further came in with a TGI in experiment [9] of 42.3 µM.

Turning to `COc1ccccc1NC(=O)C1=C(C)NC(C)=C(C(=O)Nc2ccccc2OC)C1/C=C/c1ccccc1`, the TGI in [1], in [2], in [3], in experiment [4], in experiment [5] and in experiment [6] was greater than 100 µM each time.
